Data on 2 compounds can be found in patent US20260109699A1, “AZOLE DERIVATIVES AS SHP2 INHIBITORS” (IRBM S.P.A., priority 2022, published 2026).

For data set [1], the target named is T1, recombinant SHP2 protein (AviTag-G4SG4S-SHP2(1-525)) (Homo sapiens, UniProt Q06124).
T1 construct: recombinant SHP2 protein (AviTag-G4SG4S-SHP2(1-525)); purchased VIVA Biotech Ltd (custom production)
T1 sequence (Q06124 1-525): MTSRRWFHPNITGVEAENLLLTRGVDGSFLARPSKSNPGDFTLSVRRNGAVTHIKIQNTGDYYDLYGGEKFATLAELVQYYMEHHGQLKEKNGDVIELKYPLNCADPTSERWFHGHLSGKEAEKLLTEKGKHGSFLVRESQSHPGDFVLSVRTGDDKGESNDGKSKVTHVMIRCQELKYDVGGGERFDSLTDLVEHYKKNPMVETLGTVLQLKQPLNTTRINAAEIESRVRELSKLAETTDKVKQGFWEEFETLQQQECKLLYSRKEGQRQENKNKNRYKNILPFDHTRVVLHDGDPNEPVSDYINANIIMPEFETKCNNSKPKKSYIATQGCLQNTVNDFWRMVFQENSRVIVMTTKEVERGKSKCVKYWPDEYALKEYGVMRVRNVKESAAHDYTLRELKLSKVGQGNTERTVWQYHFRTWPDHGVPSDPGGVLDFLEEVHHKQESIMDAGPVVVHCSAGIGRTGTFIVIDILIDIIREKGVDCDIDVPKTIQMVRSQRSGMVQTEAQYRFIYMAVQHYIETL
Description: Binding kinetic assay by surface plasmon resonance (SPR). The settings on record: for Residence time 1/koff SPR: 1/koff from SPR; for koff: Biacore T200, single cycle kinetic, 25° C, 1:1 Langmuir model. On the procedure: A N-term biotinylated recombinant SHP2 protein (AviTag-G4SG4S-SHP2(1-525)) was custom produced by VIVA Biotech Ltd. Binding kinetic rate constants were measured by SPR, using a Biacore T200 instrument. The recombinant SHP2 protein was diluted at […] in HBS-P+ buffer, then captured on a series S streptavidin sensor chip up to 5000 RU. Binding of compounds was assessed by a single cycle kinetic procedure (SCK): compounds were diluted in HBS-EP+ supplemented with 20% DMSO (from 300 to 3.7 nM, 3 fold dilution), injected for 120 s over the ligand, then dissociation rate measured for 3600 s, at […] and 25° C. Sensorgrams were analysed by Biacore T200 evaluation software: binding rate constants (kon, koff) and affinity (KD) were calculated by curve filling according to a 1:1 Langmuir model. Each molecule was tested in triplicate on separate flow channels.

Data set [2] in a line: Determination of brain penetration in SD rats. It counts as in vivo. The settings on record: Sprague-Dawley (SD), rat; male SD rats, IV 0.2 mg/kg, unbound brain to plasma ratio at 8 h; read-out: Kpuu, brain. Here is the method:
Total brain levels, expressed as brain/plasma ratio (Kp,brain) were measured by Cbrain@8h/Cplasma@8h in SD rats after IV administration (see Pharmaceutical Research, Vol. 25, No. 8, August 2008 DOI: 10.1007/s11095-007-9502-2; Pharmaceutical Research (2022) 39:1321-1341 https://doi.org/10.1007/s11095-022-03246-6). Unbound fraction of each molecule in biological matrix was determined by in vitro plasma and brain binding assay. Kpuu, brain was calculated by the following equation: […]
In vitro plasma and brain binding assay was carried out on a RED (Rapid Equilibrium Dialysis) device. Unbound fraction (fu) of each molecule in the brain homogenate and plasma were calculated by the ratio of the buffer side response to the brain homogenate/plasma side response. An IV study design was used as the in vivo screening model to identify brain penetration of each molecule. Male naïve SD rats (n=3) were intravenously dosed with each molecule at 0.2 mg/kg in DMSO/Propylene Glycol/Water, 20:60:20 (v/v/v). At 0.083, 0.25, 0.5, 1, 2, 4, and 8 h post-dose plasma samples were collected via tail vein and brain tissue was harvested at the 8 h time point and homogenized in 3× volume of water. All samples were stored at ˜−80° C. prior to LC/MS/MS analysis. At the 8 h time point, the unbound brain to plasma ratios were generated to identify molecules with Kpuu, brain values>0.3 which is indicative of good passive brain penetration.

Data set [3] has as its system phospho-ERK1/2 (Thr202/Tyr204). Description: Phospho-ERK cellular assay. It counts as cell-based. The settings on record: Homo sapiens; KYSE-520 cells, 2 h at 37° C, TR-FRET; read-out: pERK IC50. The gist of the method:
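KYSE-520 cells treated overnight-after-plating with serially diluted compounds for 2 h at 37° C, then lysed. Phospho-ERK1/2 measured by TR-FRET after overnight antibody incubation at rt; inhibition normalized between DMSO (0%) and no-cell (100%) wells, IC50 from four-parameter logistic fit.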

The target in data set [4] is T2, SHP-2 enzyme (Met1-Leu525), SHP2wt (Homo sapiens, UniProt Q06124).
T2 construct: synthetized by Origene, Met1-Leu525, cat #TP750155; purchased Origene TP750155
T2 sequence (Q06124 1-525): T1 sequence (Q06124 1-525)
As to the kind of experiment: SHP2 inhibition enzymatic assay. It counts as biochemical. The note with it: 0.5 nM SHP-2 activated by 500 nM IRS1 peptide, 75 μM DiFMUP substrate. In outline: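 Human SHP2 (Met1-Leu525, 0.5 nM) activated by 500 nM bis-phosphorylated IRS1 peptide, pre-incubated 30 min with compound, then 75 μM DiFMUP for 30 min at rt in HEPES pH 7.2, NaCl/KCl, EDTA, Tween-20, 5 mM DTT. Reaction quenched with bpV, fluorescence read; IC50 by four-parameter logistic fit.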

As usually defined, the koff is the first-order rate constant of dissociation. Usually IC50 stands for the midpoint of a concentration-inhibition curve. In the case of `N[C@@H]1c2ccnn2CC12CCN(c1cnc(Sc3cccc(-n4ccnc4)c3Cl)cn1)CC2` [Example 44, (S)-1-(5-((2-chloro-3-(1H-imidazol-1-yl)phenyl)thio)pyrazin-2-yl)-4′H,6′H-spiro[piperidine-4,5′-pyrrolo[1,2-b]pyrazol]-4′-amine], in data set [1], the “Residence time 1/koff SPR” value is 3417 s and the koff came out at 0.000293 s⁻¹. Also, the Kp uu at 8 h in data set [2] was over 0.3. In data set [3], the IC50 is under 100 nM. The IC50 in data set [4] is at most 50 nM.
On to `Cc1cccc(Sc2cnc(N3CCC4(CC3)Cn3nccc3[C@H]4N)cn2)c1F` [Example 36, (S)-1-(5-((2-fluoro-3-methylphenyl)thio)pyrazin-2-yl)-4′H,6′H-spiro[piperidine-4,5′-pyrrolo[1,2-b]pyrazol]-4′-amine], for which, in data set [1], the “Residence time 1/koff SPR” value was determined as 53571 s and the koff turned out to be 1.87e-05 s⁻¹. Also, the Kp uu at 8 h in data set [2] was under 0.3. In addition, the IC50 in data set [3] is under 100 nM. This compound had an IC50 in data set [4] of at most 50 nM.
